The record followed here is patent US11420973B2, “Amide substituted indole compounds useful as TLR inhibitors” (BRISTOL-MYERS SQUIBB COMPANY, priority 2017, dated 2022).

Test [1] has as its target human TLR9 (Homo sapiens (Human), UniProt Q9NR96). As to the kind of experiment: TLR9 inhibition reporter assay (HEK-Blue SEAP reporter, ODN2006 stimulation).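 Note: SEAP reporter under IFN-β minimal promoter with five NF-κB and AP-1 sites, 22 h incubation, compounds 0.05 nM–50 µM, inhibition relative to agonist plus DMSO versus known inhibitor.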
Description: (§1) HEK-Blue™-cells (Invivogen) overexpressing human TLR7, TLR8 or TLR9 receptors were used for screening inhibitors of these receptors using an inducible SEAP (secreted embryonic alkaline phosphatase) reporter gene under the control of the IFN-β minimal promoter fused to five NF-κB and AP-1-binding sites. Briefly, cells are seeded into Greiner 384 well plates (15000 cells per well for TLR7, 20,000 for TLR8 and 25,000 for TLR9) and then treated with test compounds in DMSO to yield a final dose response concentration range of 0.05 nM-50 μM. After a 30 minute compound pre-treatment at room temperature, the cells are then stimulated with a TLR7 ligand (gardiquimod at a final concentration of 7.5 μM), TLR8 ligand (R848 at a final concentration of 15.9 μM) or TLR9 ligand (ODN2006 at a final concentration of 5 nM) to activate NF-κB and AP-1 which induce the production of SEAP. After a 22 hour incubation at 37° C., 5% CO2, SEAP levels are determined with the addition of HEK-Blue™ Detection reagent (Invivogen), a cell culture medium that allows for detection of SEAP, according to manufacturer's specifications.
The target in test [2] is human TLR7 (Homo sapiens (Human), UniProt Q9NYK1). As to the kind of experiment: TLR7 inhibition reporter assay (HEK-Blue SEAP reporter, gardiquimod stimulation). In kind it is cell-based. The following applies: HEK-Blue cells overexpressing human TLR7, gardiquimod 7.5 μM.
Test [3] deals with human TLR8 (Homo sapiens (Human), UniProt Q9NR97). As to the kind of experiment: TLR8 inhibition reporter assay (HEK-Blue SEAP reporter, R848 stimulation).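 Note: SEAP driven by IFN-β minimal promoter with NF-κB and AP-1 sites, 22 h incubation, compounds 0.05 nM–50 µM, inhibition scaled between agonist plus DMSO and reference inhibitor wells.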
Description: as §1
Where [4] appears, read: read-out: TLR9 IC50, HEK-Blue cells overexpressing human TLR9, ODN2006 5 nM, SEAP reporter.
The mark [5] stands for this setting: read-out: TLR8 IC50, HEK-Blue cells overexpressing human TLR8, R848 15.9 μM, SEAP reporter.

Where a name gives a salt, the structure may show the parent alone. Read-outs that look alike come from different tables or passages of the source.

Chain of human TLR7 (Q9NYK1 27-1049): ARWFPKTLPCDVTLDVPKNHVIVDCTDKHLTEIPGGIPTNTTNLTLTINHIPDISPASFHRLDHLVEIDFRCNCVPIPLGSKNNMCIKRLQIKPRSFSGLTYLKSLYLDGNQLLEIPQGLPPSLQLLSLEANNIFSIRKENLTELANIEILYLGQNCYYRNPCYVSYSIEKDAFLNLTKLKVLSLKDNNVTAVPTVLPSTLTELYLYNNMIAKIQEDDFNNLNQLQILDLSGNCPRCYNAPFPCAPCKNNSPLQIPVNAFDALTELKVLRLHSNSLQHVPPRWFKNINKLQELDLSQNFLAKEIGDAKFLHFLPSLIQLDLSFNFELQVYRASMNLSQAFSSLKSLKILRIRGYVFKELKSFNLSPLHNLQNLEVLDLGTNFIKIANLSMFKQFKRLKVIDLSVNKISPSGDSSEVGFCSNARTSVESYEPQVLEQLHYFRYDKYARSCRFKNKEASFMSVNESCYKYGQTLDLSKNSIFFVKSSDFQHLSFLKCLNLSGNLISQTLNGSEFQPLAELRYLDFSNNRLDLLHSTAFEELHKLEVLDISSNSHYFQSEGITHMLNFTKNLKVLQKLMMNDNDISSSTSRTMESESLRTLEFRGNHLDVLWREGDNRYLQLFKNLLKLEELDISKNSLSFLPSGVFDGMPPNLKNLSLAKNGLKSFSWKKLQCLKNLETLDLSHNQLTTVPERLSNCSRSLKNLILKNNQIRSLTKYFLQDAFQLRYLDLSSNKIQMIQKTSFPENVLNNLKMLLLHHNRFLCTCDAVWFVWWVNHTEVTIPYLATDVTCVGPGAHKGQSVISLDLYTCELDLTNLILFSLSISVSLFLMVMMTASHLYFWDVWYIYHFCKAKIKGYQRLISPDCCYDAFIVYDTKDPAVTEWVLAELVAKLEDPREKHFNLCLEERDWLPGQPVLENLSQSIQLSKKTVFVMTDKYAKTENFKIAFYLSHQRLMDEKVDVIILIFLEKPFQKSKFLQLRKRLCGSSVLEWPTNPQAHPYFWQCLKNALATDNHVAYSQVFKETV
Chain of human TLR8 (Q9NR97 27-1041): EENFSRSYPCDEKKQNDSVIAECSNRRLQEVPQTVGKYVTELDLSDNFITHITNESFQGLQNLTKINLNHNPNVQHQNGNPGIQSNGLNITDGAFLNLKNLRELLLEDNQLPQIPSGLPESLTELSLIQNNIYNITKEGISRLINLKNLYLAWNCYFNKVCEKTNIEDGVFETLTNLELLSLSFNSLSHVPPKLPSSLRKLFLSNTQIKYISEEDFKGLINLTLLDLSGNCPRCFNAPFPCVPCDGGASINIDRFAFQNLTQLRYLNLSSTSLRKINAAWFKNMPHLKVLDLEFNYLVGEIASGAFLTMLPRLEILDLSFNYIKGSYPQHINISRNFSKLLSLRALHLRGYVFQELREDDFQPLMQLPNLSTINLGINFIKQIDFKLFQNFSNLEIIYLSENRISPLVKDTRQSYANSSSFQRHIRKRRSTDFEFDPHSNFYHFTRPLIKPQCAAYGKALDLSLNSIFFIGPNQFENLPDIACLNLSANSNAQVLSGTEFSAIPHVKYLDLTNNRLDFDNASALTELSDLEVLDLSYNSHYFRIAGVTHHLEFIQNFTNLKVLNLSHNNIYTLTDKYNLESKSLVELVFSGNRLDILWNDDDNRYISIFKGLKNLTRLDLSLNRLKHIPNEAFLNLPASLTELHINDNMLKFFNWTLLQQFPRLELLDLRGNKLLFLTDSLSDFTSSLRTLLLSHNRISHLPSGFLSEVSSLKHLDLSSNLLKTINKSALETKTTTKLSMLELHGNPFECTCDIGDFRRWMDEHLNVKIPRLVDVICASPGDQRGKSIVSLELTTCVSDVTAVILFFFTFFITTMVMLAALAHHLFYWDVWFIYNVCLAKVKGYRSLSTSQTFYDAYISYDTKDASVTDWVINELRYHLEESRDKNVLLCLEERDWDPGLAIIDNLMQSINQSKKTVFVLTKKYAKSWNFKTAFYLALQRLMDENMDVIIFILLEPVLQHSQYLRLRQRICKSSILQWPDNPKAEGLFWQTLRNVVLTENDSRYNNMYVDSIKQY
Chain of human TLR9 (Q9NR96 26-1032): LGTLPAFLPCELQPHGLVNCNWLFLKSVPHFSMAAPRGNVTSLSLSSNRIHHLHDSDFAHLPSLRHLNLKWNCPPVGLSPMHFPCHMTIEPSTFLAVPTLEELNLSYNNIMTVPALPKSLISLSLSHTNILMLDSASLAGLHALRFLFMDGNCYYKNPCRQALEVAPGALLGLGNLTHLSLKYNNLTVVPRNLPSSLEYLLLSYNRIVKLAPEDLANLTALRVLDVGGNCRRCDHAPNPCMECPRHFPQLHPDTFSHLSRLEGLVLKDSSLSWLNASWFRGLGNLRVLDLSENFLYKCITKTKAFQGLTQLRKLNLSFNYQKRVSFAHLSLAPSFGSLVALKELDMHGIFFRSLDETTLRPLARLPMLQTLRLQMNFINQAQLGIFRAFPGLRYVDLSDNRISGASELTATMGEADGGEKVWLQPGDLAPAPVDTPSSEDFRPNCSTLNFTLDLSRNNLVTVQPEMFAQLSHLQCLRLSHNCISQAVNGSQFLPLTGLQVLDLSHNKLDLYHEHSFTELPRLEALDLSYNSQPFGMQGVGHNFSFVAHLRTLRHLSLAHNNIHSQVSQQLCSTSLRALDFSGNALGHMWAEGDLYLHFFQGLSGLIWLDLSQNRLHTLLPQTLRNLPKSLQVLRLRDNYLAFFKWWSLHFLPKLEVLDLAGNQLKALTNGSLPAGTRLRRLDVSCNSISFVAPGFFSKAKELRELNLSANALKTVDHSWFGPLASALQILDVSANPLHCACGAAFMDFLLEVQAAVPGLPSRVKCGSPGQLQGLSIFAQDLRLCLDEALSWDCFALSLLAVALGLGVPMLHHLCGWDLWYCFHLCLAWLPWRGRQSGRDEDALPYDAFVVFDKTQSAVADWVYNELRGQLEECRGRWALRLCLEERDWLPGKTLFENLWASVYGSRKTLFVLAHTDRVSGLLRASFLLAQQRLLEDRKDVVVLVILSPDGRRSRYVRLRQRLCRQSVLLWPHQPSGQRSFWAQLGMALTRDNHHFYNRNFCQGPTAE

`Cc1cc(-c2[nH]c3ccc(C(=O)N4CCN(Cc5ncn(C)n5)CC4)cc3c2C(C)C)cc(C)n1` [Example 98, (2-(2,6-dimethylpyridin-4-yl)-3-isopropyl-1H-indol-5-yl)(4-((1-methyl-1H-1,2,4-triazol-3-yl)methyl)piperazin-1-yl)methanone]: the half-maximal inhibitory concentration (IC50) is greater than 50000 nM in test [1] (setting [4]), 82 nM in test [2] and 45 nM in test [3] (setting [5]).
Consider `Cc1cc(-c2[nH]c3ccc(C(=O)N(C)Cc4ccccc4)cc3c2C(C)C)cc(C)n1` [Example 99, N-benzyl-2-(2,6-dimethylpyridin-4-yl)-3-isopropyl-N-methyl-1H-indole-5-carboxamide], for which the IC50 in test [1] (setting [4]) is 1830 nM; in test [2] it was 201 nM; in test [3] (setting [5]) it was 481 nM.
In the case of `Cc1cc(-c2[nH]c3ccc(C(=O)N(C)Cc4cccnc4)cc3c2C(C)C)cc(C)n1` [Example 100, 2-(2,6-dimethylpyridin-4-yl)-3-isopropyl-N-methyl-N-(pyridin-3-ylmethyl)-1H-indole-5-carboxamide], the IC50 is greater than 50000 nM in test [1] (setting [4]), 46 nM in test [2] and 320 nM in test [3] (setting [5]).
The matching figures for `Cc1cc(-c2[nH]c3ccc(C(=O)N(C)C4CCN(C)CC4)cc3c2C(C)C)cc(C)n1` [Example 101, 2-(2,6-dimethylpyridin-4-yl)-3-isopropyl-N-methyl-N-(1-methylpiperidin-4-yl)-1H-indole-5-carboxamide]: 776 nM, 1.9 nM and 0.34 nM.
Take `Cc1cc(-c2[nH]c3ccc(C(=O)N(C)CCc4ccccc4)cc3c2C(C)C)cc(C)n1` [Example 102, 2-(2,6-dimethylpyridin-4-yl)-3-isopropyl-N-methyl-N-phenethyl-1H-indole-5-carboxamide]: the IC50 in test [1] (setting [4]) stood at 5060 nM; in test [2], 185 nM; in test [3] (setting [5]), 418 nM.
In the case of `Cc1cc(-c2[nH]c3ccc(C(=O)N(C)Cc4cccc(N)c4)cc3c2C(C)C)cc(C)n1` [Example 103, N-(3-aminobenzyl)-2-(2,6-dimethylpyridin-4-yl)-3-isopropyl-N-methyl-1H-indole-5-carboxamide], the IC50 was found to be 27100 nM in test [1] (setting [4]), 54 nM in test [2] and 192 nM in test [3] (setting [5]).
Consider `Cc1cc(-c2[nH]c3ccc(C(=O)N4CCC(N(C)C)CC4)cc3c2C(C)C)cc(C)n1` [Example 104, (4-(dimethylamino)piperidin-1-yl)(2-(2,6-dimethylpyridin-4-yl)-3-isopropyl-1H-indol-5-yl)methanone], for which the IC50 was determined as 373 nM in test [1] (setting [4]), 14 nM in test [2] and 12 nM in test [3] (setting [5]).
For the molecule `Cc1cc(-c2[nH]c3ccc(C(=O)N(C)CCO)cc3c2C(C)C)cc(C)n1` [Example 105, 2-(2,6-dimethylpyridin-4-yl)-N-(2-hydroxyethyl)-3-isopropyl-N-methyl-1H-indole-5-carboxamide], the IC50 in test [1] (setting [4]) was found to be 20800 nM; in test [2] it was 33 nM; in test [3] (setting [5]), 59 nM.
For `COCCN(C)C(=O)c1ccc2[nH]c(-c3cc(C)nc(C)c3)c(C(C)C)c2c1` [Example 106, 2-(2,6-dimethylpyridin-4-yl)-3-isopropyl-N-(2-methoxyethyl)-N-methyl-1H-indole-5-carboxamide] the same measures were greater than 50000 nM, 51 nM and 105 nM.
As to `Cc1cc(-c2[nH]c3ccc(C(=O)N4CC5CNCC5C4)cc3c2C(C)C)cc(C)n1` (stereo not drawn) [Example 107, (2-(2,6-dimethylpyridin-4-yl)-3-isopropyl-1H-indol-5-yl)(hexahydropyrrolo[3,4-c]pyrrol-2(1H)-yl)methanone, 2 HCl], the IC50 came out at 264 nM in test [1], 73 nM in test [2] and 58 nM in test [3].
With `Cc1cc(-c2[nH]c3ccc(C(=O)N4CCNCC4)cc3c2C(C)C)cc(C)n1` [Example 108, (2-(2,6-dimethylpyridin-4-yl)-3-isopropyl-1H-indol-5-yl)(piperazin-1-yl)methanone], the IC50 in test [1] (setting [4]) was found to be 247 nM; in test [2], 7.3 nM; in test [3] (setting [5]) it was 1.5 nM.
For the molecule `Cc1cc(-c2[nH]c3ccc(C(=O)N4CC5CN(C)CC5C4)cc3c2C(C)C)cc(C)n1` (stereo not drawn) [Example 109, (2-(2,6-dimethylpyridin-4-yl)-3-isopropyl-1H-indol-5-yl)(5-methylhexahydropyrrolo[3,4-c]pyrrol-2(1H)-yl)methanone], the IC50 in test [1] (setting [4]) stood at 116 nM; in test [2] it was 18 nM; in test [3] (setting [5]) it was 2.3 nM.
The matching figures for `Cc1cc(-c2[nH]c3ccc(C(=O)N4CC5CN(C(C)C)CC5C4)cc3c2C(C)C)cc(C)n1` (stereo not drawn) [Example 110, (2-(2,6-dimethylpyridin-4-yl)-3-isopropyl-1H-indol-5-yl)(5-isopropylhexahydropyrrolo[3,4-c]pyrrol-2(1H)-yl)methanone]: 410 nM, 49 nM and 11 nM.
On to `Cc1cc(-c2[nH]c3ccc(C(=O)N4CC5CN(C(=O)CN(C)C)CC5C4)cc3c2C(C)C)cc(C)n1` (stereo not drawn) [Example 111, 2-(dimethylamino)-1-(5-(2-(2,6-dimethylpyridin-4-yl)-3-isopropyl-1H-indole-5-carbonyl)hexahydropyrrolo[3,4-c]pyrrol-2(1H)-yl)ethanone], for which the results for the IC50 in test [1] (setting [4]), in test [2] and in test [3] (setting [5]) were 668 nM, 171 nM and 74 nM, respectively.
Take `Cc1cc(-c2[nH]c3ccc(C(=O)N4CC5CNCC5C4)cc3c2C(C)C)ccn1` (stereo not drawn) [Example 112, (hexahydropyrrolo[3,4-c]pyrrol-2(1H)-yl)(3-isopropyl-2-(2-methylpyridin-4-yl)-1H-indol-5-yl)methanone, HCl]: the figures for the IC50 in test [1], in test [2] and in test [3] were 334 nM, 335 nM and 36 nM, respectively.
For `Cc1cc(-c2[nH]c3ccc(C(=O)NC4CCN(C(C)C)CC4)cc3c2C(C)C)ccn1` [Example 113, 3-isopropyl-N-(1-isopropylpiperidin-4-yl)-2-(2-methylpyridin-4-yl)-1H-indole-5-carboxamide], the IC50 in test [1] (setting [4]) is 1270 nM; in test [2], 50 nM; in test [3] (setting [5]), 0.8 nM.
For `Cc1cc(-c2[nH]c3ccc(C(=O)N4CCCN(C)CC4)cc3c2C(C)C)ccn1` [Example 114, (3-isopropyl-2-(2-methylpyridin-4-yl)-1H-indol-5-yl)(4-methyl-1,4-diazepan-1-yl)methanone] the same measures were 3630 nM, 135 nM and 2.4 nM.
For `Cc1cc(-c2[nH]c3ccc(C(=O)N4CC5CN(C)CC5C4)cc3c2C(C)C)ccn1` (stereo not drawn) [Example 115, (3-isopropyl-2-(2-methylpyridin-4-yl)-1H-indol-5-yl)(5-methylhexahydropyrrolo[3,4-c]pyrrol-2(1H)-yl)methanone] the same measures were 1580 nM, 147 nM and 3.5 nM.
With `Cc1cc(-c2[nH]c3ccc(C(=O)N4CC5CN(C(C)C)CC5C4)cc3c2C(C)C)ccn1` (stereo not drawn) [Example 116, (3-isopropyl-2-(2-methylpyridin-4-yl)-1H-indol-5-yl)(5-isopropylhexahydropyrrolo[3,4-c]pyrrol-2(1H)-yl)methanone], the IC50 in test [1] (setting [4]) stood at 985 nM; in test [2] it was 117 nM; in test [3] (setting [5]) it was 3.6 nM.
In the case of `Cc1cc(-c2[nH]c3ccc(C(=O)N4CC5CN(CC(=O)N(C)C)CC5C4)cc3c2C(C)C)ccn1` (stereo not drawn) [Example 117, 2-(5-(3-isopropyl-2-(2-methylpyridin-4-yl)-1H-indole-5-carbonyl)hexahydropyrrolo[3,4-c]pyrrol-2(1H)-yl)-N,N-dimethylacetamide], the figures for the IC50 in test [1] (setting [4]), in test [2] and in test [3] (setting [5]) were 3700 nM, 730 nM and 20 nM, respectively.
For `CNC(=O)CN1CC2CN(C(=O)c3ccc4[nH]c(-c5ccnc(C)c5)c(C(C)C)c4c3)CC2C1` (stereo not drawn) [Example 118, 2-(5-(3-isopropyl-2-(2-methylpyridin-4-yl)-1H-indole-5-carbonyl)hexahydropyrrolo[3,4-c]pyrrol-2(1H)-yl)-N-methylacetamide] the same measures were 22700 nM, 4050 nM and 165 nM.
As for `CNCC(=O)N1CC2CN(C(=O)c3ccc4[nH]c(-c5ccnc(C)c5)c(C(C)C)c4c3)CC2C1` (stereo not drawn) [Example 119, 1-(5-(3-isopropyl-2-(2-methylpyridin-4-yl)-1H-indole-5-carbonyl)hexahydropyrrolo[3,4-c]pyrrol-2(1H)-yl)-2-(methylamino)ethanone], the IC50 in test [1] (setting [4]) amounted to 2230 nM; in test [2] it was 2610 nM; in test [3] (setting [5]), 226 nM.
For `Cc1cc(-c2[nH]c3ccc(C(=O)N4CC5CN(C(=O)CN(C)C)CC5C4)cc3c2C(C)C)ccn1` (stereo not drawn) [Example 120, 2-(dimethylamino)-1-(5-(3-isopropyl-2-(2-methylpyridin-4-yl)-1H-indole-5-carbonyl)hexahydropyrrolo[3,4-c]pyrrol-2(1H)-yl)ethan-1-one] the same measures were 752 nM, 870 nM and 47 nM.
The matching figures for `CC(C)c1c(-c2ccnc3[nH]ncc23)[nH]c2ccc(C(=O)N3CC4CNCC4C3)cc12` (stereo not drawn) [Example 121, (hexahydropyrrolo[3,4-c]pyrrol-2(1H)-yl)(3-isopropyl-2-(1H-pyrazolo[3,4-b]pyridin-4-yl)-1H-indol-5-yl)methanone, HCl]: 3330 nM, 1600 nM and 122 nM.
The matching figures for `Cc1cc(-c2[nH]c3ccc(C(=O)N4CC5CNCC5C4)cc3c2CC(F)F)cc(C)n1` (stereo not drawn) [Example 122, (3-(2,2-difluoroethyl)-2-(2,6-dimethylpyridin-4-yl)-1H-indol-5-yl)(hexahydropyrrolo [3,4-c]pyrrol-2(1H)-yl)methanone]: 1460 nM, 2260 nM and 5650 nM.
